Reference: ChEMBL document CHEMBL1156829 (Proc Natl Acad Sci U S A, 2008)

Tests used:
Plasmodium falciparum [1] = test: NOVARTIS: Inhibition of Plasmodium falciparum W2 (drug-resistant) proliferation in erythrocyte-based infection assay; format: functional, organism-based; settings: Plasmodium falciparum, W2; read-out: EC50
[2] = NOVARTIS: Cytotoxicity against human hepatocellular carcinoma cell line (Huh7); format: toxicity, cell-based, Huh-7; settings: Huh7 cells (hepatocellular carcinoma cell line)
Plasmodium falciparum [3] = test: NOVARTIS: Inhibition of Plasmodium falciparum 3D7 (drug-susceptible) proliferation in erythrocyte-based infection assay; format: functional, organism-based; settings: Plasmodium falciparum, 3D7

`Oc1c2c(nc3cc(-c4ccc(Cl)cc4)nn13)CCCC2` gave an EC50 (Plasmodium falciparum [1]) greater than 12.5 µM, a CC50 [2] greater than 100 µM and an EC50 (Plasmodium falciparum [3]) of 6.48 µM.
In the case of `CC1CCc2c(sc(NC(=O)c3ccccc3F)c2C(=O)NCc2ccccc2)C1` (configuration not stated), the EC50 (Plasmodium falciparum [1]) is reported as greater than 1.25 µM, the CC50 [2] is reported as greater than 10 µM and the EC50 (Plasmodium falciparum [3]) is reported as greater than 0.699 µM.
With `CCC(=O)N=c1sc2cc([N+](=O)[O-])ccc2n1CCOC` the EC50 (Plasmodium falciparum [1]) was greater than 1.25 µM, the CC50 [2] was greater than 10 µM and the EC50 (Plasmodium falciparum [3]) was greater than 0.686 µM.
In the case of `Cc1cc(C)n2nc(-c3ccc(Cl)cc3)cc2n1`, the EC50 (Plasmodium falciparum [1]) is reported as greater than 1.25 µM, the CC50 [2] is reported as greater than 10 µM and the EC50 (Plasmodium falciparum [3]) is reported as greater than 0.685 µM.
With `CCOC(=O)N1CCN(C(=O)CSc2nc(-c3ccc(Cl)cc3)cn2-c2ccc(C)cc2)CC1` the EC50 (Plasmodium falciparum [1]) was greater than 1.25 µM, the CC50 [2] was greater than 10 µM and the EC50 (Plasmodium falciparum [3]) was 0.71 µM.
`CN(C)c1nc(Cl)nc(N(C#N)CCOc2ccccc2)n1` gave an EC50 (Plasmodium falciparum [1]) greater than 1.25 µM, a CC50 [2] greater than 10 µM and an EC50 (Plasmodium falciparum [3]) greater than 0.703 µM.
For `CC(C)CNC(=O)c1cnc(NCCC2CCCN2C)nc1NCCc1ccccc1` (configuration not stated), the EC50 (Plasmodium falciparum [1]) was greater than 1.25 µM, the CC50 [2] was greater than 10 µM and the EC50 (Plasmodium falciparum [3]) was 0.699 µM.
`CC(C)C1N=C2c3ccccc3N=C(SCC(=O)Nc3cc(C(F)(F)F)ccc3Cl)N2C1=O` (configuration not stated) gave an EC50 (Plasmodium falciparum [1]) greater than 12.5 µM, a CC50 [2] greater than 100 µM and an EC50 (Plasmodium falciparum [3]) of 5.91 µM.
In the case of `CC(C)CNc1nc(NCCCN2CCCC2)ncc1C(=O)NCCc1ccccc1`, the EC50 (Plasmodium falciparum [1]) is reported as greater than 1.25 µM, the CC50 [2] is reported as greater than 10 µM and the EC50 (Plasmodium falciparum [3]) is reported as 0.719 µM.
`Cc1nccn1CC(C)C(=O)N1CCCC(n2nc(-c3cccs3)ccc2=O)C1` (configuration not stated) gave an EC50 (Plasmodium falciparum [1]) greater than 1.25 µM, a CC50 [2] greater than 10 µM and an EC50 (Plasmodium falciparum [3]) greater than 0.62 µM.
Work on `CC(C)CNc1nc(NCCCN)ncc1C(=O)NCCc1ccccc1` yielded an EC50 (Plasmodium falciparum [1]) greater than 1.25 µM, a CC50 [2] greater than 10 µM and an EC50 (Plasmodium falciparum [3]) of 0.598 µM.
Work on `CCCCN(CC)C(=O)CSc1nc2ccccc2c(=O)n1Cc1ccco1` yielded an EC50 (Plasmodium falciparum [1]) greater than 1.25 µM, a CC50 [2] greater than 10 µM and an EC50 (Plasmodium falciparum [3]) greater than 0.594 µM.
In the case of `O=C(NCc1ccccc1)c1cnc(NCCCN2CCCC2)nc1NCCc1ccccc1`, the EC50 (Plasmodium falciparum [1]) is reported as greater than 1.25 µM, the CC50 [2] is reported as greater than 10 µM and the EC50 (Plasmodium falciparum [3]) is reported as 0.648 µM.
For `CCCCCCC(=O)NC1CCC(Nc2ccnc3cc(Cl)ccc23)CC1` (configuration not stated), the EC50 (Plasmodium falciparum [1]) was greater than 1.25 µM, the CC50 [2] was greater than 10 µM and the EC50 (Plasmodium falciparum [3]) was 0.63 µM.
`CCOc1ccc2nc(SCc3nc(N)nc(N4CCOCC4)n3)sc2c1` showed an EC50 (Plasmodium falciparum [1]) greater than 1.25 µM, a CC50 [2] greater than 10 µM and an EC50 (Plasmodium falciparum [3]) greater than 0.627 µM.
`COCCCNc1nc2nonc2nc1N(C)C1CCOCC1` showed an EC50 (Plasmodium falciparum [1]) greater than 1.25 µM, a CC50 [2] greater than 10 µM and an EC50 (Plasmodium falciparum [3]) greater than 0.682 µM.
In the case of `Cc1ccnc(NC(c2ccc3ccccc3c2)c2ccc3cccnc3c2O)c1` (configuration not stated), the EC50 (Plasmodium falciparum [1]) is reported as greater than 12.5 µM, the CC50 [2] is reported as greater than 100 µM and the EC50 (Plasmodium falciparum [3]) is reported as 6.75 µM.
With `O=c1c(=O)n(Cc2cccc(C(F)(F)F)c2)ccn1CCc1ccccc1` the EC50 (Plasmodium falciparum [1]) was greater than 1.25 µM, the CC50 [2] was greater than 10 µM and the EC50 (Plasmodium falciparum [3]) was greater than 0.673 µM.
`Cc1ccc(C(=O)NCCNC(=O)CN2CCOCC2)cc1` showed an EC50 (Plasmodium falciparum [1]) greater than 1.25 µM, a CC50 [2] greater than 10 µM and an EC50 (Plasmodium falciparum [3]) greater than 0.671 µM.
`CN1CCCC1CCNc1ncc(C(=O)NCc2ccccc2)c(NC2CCCC2)n1` (configuration not stated) gave an EC50 (Plasmodium falciparum [1]) greater than 1.25 µM, a CC50 [2] greater than 10 µM and an EC50 (Plasmodium falciparum [3]) of 0.658 µM.
In the case of `OC(COc1ccc(OCC(O)CN2CCN(C3c4ccccc4-c4ccccc43)CC2)cc1)CN1CCN(C2c3ccccc3-c3ccccc32)CC1` (configuration not stated), the EC50 (Plasmodium falciparum [1]) is reported as greater than 12.5 µM, the CC50 [2] is reported as greater than 100 µM and the EC50 (Plasmodium falciparum [3]) is reported as greater than 6.19 µM.
Compound `COc1cccc2cc(-c3nc(-c4ccccc4)cs3)c(=O)oc12` has an EC50 (Plasmodium falciparum [1]) greater than 1.25 µM, a CC50 [2] greater than 10 µM and an EC50 (Plasmodium falciparum [3]) greater than 0.611 µM.
With `O=C1CSC(=S)N1c1cccc(Cl)c1` the EC50 (Plasmodium falciparum [1]) was greater than 12.5 µM, the CC50 [2] was greater than 100 µM and the EC50 (Plasmodium falciparum [3]) was 6.87 µM.
In the case of `Cc1ccc(NC(=O)c2nc[nH]c2C(=O)Nc2nc3ccccc3[nH]2)c(C)c1`, the EC50 (Plasmodium falciparum [1]) is reported as greater than 12.5 µM, the CC50 [2] is reported as greater than 100 µM and the EC50 (Plasmodium falciparum [3]) is reported as 7.29 µM.
`Cc1ccc(S(=O)(=O)NNC(=O)C2CCC(c3ccccc3)CC2)c2nsnc12` (configuration not stated) gave an EC50 (Plasmodium falciparum [1]) greater than 1.25 µM, a CC50 [2] greater than 10 µM and an EC50 (Plasmodium falciparum [3]) of 0.727 µM.
In the case of `Cc1nc(-c2ccncc2)nc(NCCNc2ccc(C(F)(F)F)cn2)c1Cl`, the EC50 (Plasmodium falciparum [1]) is reported as greater than 1.25 µM, the CC50 [2] is reported as greater than 10 µM and the EC50 (Plasmodium falciparum [3]) is reported as 0.714 µM.
`CSc1nc(N)nc(SC2C=CCCC2)c1C#N` (configuration not stated) showed an EC50 (Plasmodium falciparum [1]) greater than 12.5 µM, a CC50 [2] greater than 100 µM and an EC50 (Plasmodium falciparum [3]) of 7.06 µM.
With `O=C(NCc1cc2cc3c(cc2nc1Cl)OCO3)c1ccco1` the EC50 (Plasmodium falciparum [1]) was greater than 1.25 µM, the CC50 [2] was greater than 10 µM and the EC50 (Plasmodium falciparum [3]) was greater than 0.586 µM.
`Cc1cccc(-c2ccc(NC(=O)C3CCN(Cc4cnc(C)nc4)CC3)cc2)c1` gave an EC50 (Plasmodium falciparum [1]) greater than 12.5 µM, a CC50 [2] greater than 100 µM and an EC50 (Plasmodium falciparum [3]) greater than 6.88 µM.
